Measurements taken from the CheMixHub viscosity set.
“And” between values parts separate entries of the source, which are not always exact repeats. Equal values may be shown once.

Columns and labels:
[1] = xn = mol fraction of the nth substance listed; conditions: 101 kPa

CC(=O)O.OCCNCCO
viscosity [mPa·s]
Conditions	293.15 K	298.15 K	303.15 K	308.15 K	313.15 K	318.15 K	323.15 K
100 kPa	5750	–	2248	–	1003	–	491.7
101.3 kPa	2115	1363	905.4	617.3	431.4	308.3	225

CC(=O)OCCC(C)C
viscosity
Conditions	293.15 K	303.15 K	313.15 K
101 kPa	0.86 mPa·s	0.743 mPa·s and 0.7175 mPa·s and 0.7168 mPa·s	0.642 mPa·s
101.3 kPa	–	0.6997 mPa·s	–

CC(C)COCCO
Conditions	viscosity [mPa·s]
298.15 K, 101 kPa	3.33

CCC(=O)O.CCC(=O)[O-].CC[NH+](CC)CCO
101 kPa
Conditions	viscosity [mPa·s]
293.15 K	88.32
298.15 K	66.16
303.15 K	50.6
308.15 K	39.4
313.15 K	31.21
318.15 K	25.1
323.15 K	20.46

CCCC(=O)[O-].[NH3+]CCO
101 kPa
Conditions	viscosity [mPa·s]
293.15 K	3077
298.15 K	2071
303.15 K	1434
308.15 K	1011
313.15 K	733.5
318.15 K	539.6
323.15 K	397.8

CCCCCCCC/C=C\CCCCCCCC(=O)OCC
viscosity
Conditions	293.15 K	298.15 K	303.15 K	308.15 K	313.15 K	318.15 K	323.15 K
100 kPa	6.414 mPa·s	5.653 mPa·s	4.986 mPa·s	4.435 mPa·s and 4.424 mPa·s	3.919 mPa·s	3.554 mPa·s	3.214 mPa·s
101 kPa	6.413 mPa·s	5.653 mPa·s	4.986 mPa·s	4.424 mPa·s	3.918 mPa·s	3.554 mPa·s	3.214 mPa·s

CCCCCCCCCCCCn1cc[n+](C)c1.O=S(=O)([N-]S(=O)(=O)C(F)(F)F)C(F)(F)F
100 kPa
Conditions	viscosity
298 K	135.9 mPa·s and 150.3 mPa·s
303 K	102.5 mPa·s and 114.4 mPa·s
308 K	79.3 mPa·s and 88.7 mPa·s
313 K	62.31 mPa·s and 70.09 mPa·s
318 K	49.81 mPa·s and 56.18 mPa·s
323 K	39.98 mPa·s and 45.26 mPa·s

CCCCn1cc[n+](C)c1C.O=S(=O)([N-]S(=O)(=O)C(F)(F)F)C(F)(F)F
101.3 kPa
Conditions	viscosity [mPa·s]
293.15 K	132.9
303.15 K	78.56
308.15 K	62.2
313.15 K	50.15
318.15 K	41.04
323.15 K	34.04

CCCOCC(C)OCC(C)O (centres undefined)
101.33 kPa
Conditions	viscosity [mPa·s]
298.15 K	4.001
308.15 K	2.986
318.15 K	2.271

CCOP(=O)([O-])OCC.CC[N+]1(C)CCCC1
100 kPa
Conditions	viscosity [mPa·s]
293.15 K	440.8
298.15 K	306.8
303.15 K	220
308.15 K	164.1
313.15 K	121.4
318.15 K	92.72
323.15 K	72.98

CCOP(OCC)OCC
Conditions	viscosity [mPa·s]
298.15 K, 101 kPa	0.698

CN(C)CCCN
viscosity
Conditions	293.15 K	303.15 K	308.15 K	313.15 K	318.15 K	323.15 K
100 kPa	1.079 mPa·s	0.8997 mPa·s	–	0.7611 mPa·s	–	0.6553 mPa·s
101 kPa	–	0.941 mPa·s	0.8773 mPa·s and 0.862 mPa·s	0.8098 mPa·s and 0.793 mPa·s	0.7531 mPa·s and 0.731 mPa·s	0.7013 mPa·s and 0.678 mPa·s

O=C(O)C1CCCCC1
101 kPa
Conditions	viscosity [mPa·s]
310 K	13.2
320 K	9.26

CC(=O)OCCC(C)C + c1ccccc1
viscosity [mPa·s], [1]
Conditions	298.15 K	308.15 K
x1 = 0.0442	0.606	0.532
x1 = 0.1509	0.614	0.547
x1 = 0.2507	0.623	0.563
x1 = 0.3514	0.635	0.58
x1 = 0.4526	0.65	0.6
x1 = 0.4814	0.655	0.606
x1 = 0.5508	0.667	0.621
x1 = 0.6491	0.686	0.644
x1 = 0.7484	0.709	0.67
x1 = 0.8475	0.735	0.698
x1 = 0.9443	0.763	0.728

CCOP(OCC)OCC + c1ccncc1
[1], 298.15 K
Conditions	viscosity [mPa·s]
x1 = 0.2	0.792
x1 = 0.4	0.76
x1 = 0.6	0.738
x1 = 0.8	0.707
